Assay in all cases: Bliss excess, mean over the matrix (fraction); higher = more synergy
The subject of test [1] is VAL (B-Cell Non-Hodgkin's Lymphoma). The essentials:
(§1)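 After 24 hours at 37°C and 5% CO2 in 1536-well plates, cells in DMEM/F12 or RPMI plus 10% FBS received two-drug dose matrices for 72 hours. Viability came from CellTiter-Glo 2.0 luminescence and was scaled as inhibition, anchored at 0 by vehicle wells and at 1 by blank wells. Combination Emax is taken as the second-highest inhibition in the matrix, and Bliss excess as the observed combination effect less EA + EB − EA·EB, with EA and EB the single-agent effects.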

The subject of test [2] is MFE-280 (Endometrial Carcinoma). The method, boiled down:
as §1

Test [3] deals with PSN1 (Pancreatic Carcinoma). The method, boiled down:
as §1

For test [4], the system named is RERF-GC-1B (Gastric Carcinoma). The essentials: as §1
Test [5] concerns NCI-H446 (Small Cell Lung Carcinoma). The method, boiled down:
as §1

The test system of test [6] is SF268 (Low Grade Glioma). The method, boiled down:
as §1

For test [7], the system named is GB-1 (Glioblastoma). The essentials: as §1
Test [8] concerns OVMIU (Ovarian Carcinoma). The essentials:
as §1

For test [9], the system named is COLO-680N (Esophageal Squamous Cell Carcinoma). The essentials: as §1
The test system of test [10] is LB996-RCC (Kidney Carcinoma). The essentials: as §1
In test [11] the test system is WM278 (Melanoma). The method, boiled down:
as §1

The test system of test [12] is LK-2 (Squamous Cell Lung Carcinoma). The essentials: as §1
Test [13] concerns LN-229 (Glioblastoma). The method, boiled down: as §1
Test [14] relates to SK-PN-DW (Other Solid Carcinomas). The method, boiled down:
as §1

Test [15] relates to TE-8 (Esophageal Squamous Cell Carcinoma). The essentials:
as §1

Test [16] has as its system SHP-77 (Small Cell Lung Carcinoma). The method, boiled down:
as §1

In test [17] the test system is OPM-2 (Plasma Cell Myeloma). The essentials: as §1
Test [18] has as its system OAW-42 (Ovarian Carcinoma). The method, boiled down:
as §1

The test system of test [19] is FADU (Head and Neck Carcinoma). The essentials: as §1
In test [20] the test system is L-1236 (Hodgkin's Lymphoma). The method, boiled down: as §1

For the compound `NC1(C(=O)N[C@@H](CCO)c2ccc(Cl)cc2)CCN(c2ncnc3[nH]ccc23)CC1` [Capivasertib] + CC(=O)c1c(C)c2cnc(Nc3ccc(N4CCNCC4)cn3)nc2n(C2CCCC2)c1=O [Palbociclib] (first compound max 10 µM, 7x7, partner max 10 µM), the Bliss excess was -0.0051 in test [1]; -0.0624 in [2]; 0.0408 in test [3]; -0.0203 in [4]; -0.03 in test [5]; -0.055 in test [6]. Moreover, the Bliss excess in test [7] is -0.0497; in test [8] it was -0.0168; in test [9], -0.0467; in [10], 0.0312; in test [11], -0.0217; in test [12], 0.0401. Also, the Bliss excess was -0.0387 in [13]; -0.0603 in test [14]; -0.0254 in test [15]; -0.142 in [16]; 0.0472 in test [17]; -0.0305 in test [18]. Further, the Bliss excess in [19] is -0.0259; in [20] it was -0.0829.
In the case of `NC1(C(=O)N[C@@H](CCO)c2ccc(Cl)cc2)CCN(c2ncnc3[nH]ccc23)CC1` [Capivasertib] + CC(C)n1c(=O)n(C)c2cnc3cc(F)c(-c4ccc(OCCCN5CCCCC5)nc4)cc3c21 [AZD1390] (first compound max 10 µM, 7x7, partner max 0.3 µM), the Bliss excess in test [1] is -0.0887; in test [2] it was -0.0763; in [3], -0.0422; in test [4] it was -0.0323; in test [5], -0.0866; in test [6] it was -0.0398. In addition, the Bliss excess in test [7] was -0.0399; in test [8] it was -0.0592; in [9], -0.0403; in test [10], -0.0871; in [11] it was -0.0671; in [12] it was -0.0165. Further, the Bliss excess in [13] was -0.0755; in [14], -0.0892; in test [15] it was -0.0571; in test [16] it was -0.0178; in test [17] it was -0.0346; in test [18] it was -0.0171. In addition, the Bliss excess in [19] is -0.0562; in test [20], 0.0156.
As for `NC1(C(=O)N[C@@H](CCO)c2ccc(Cl)cc2)CCN(c2ncnc3[nH]ccc23)CC1` [Capivasertib] + CCN(CCO)CCCOc1ccc2c(Nc3cc(CC(=O)Nc4cccc(F)c4)[nH]n3)ncnc2c1 [AZD2811] (first compound max 10 µM, 7x7, partner max 1 µM), the Bliss excess was -0.162 in test [1]; -0.0112 in test [2]; -0.0309 in test [3]; 0.0188 in test [4]; -0.0168 in test [5]; -0.0667 in test [6]. Moreover, the Bliss excess in test [7] was -0.0143; in [8] it was -0.0385; in test [9], -0.0009; in test [10], -0.0146; in test [11], -0.065; in test [12], -0.0303. Moreover, the Bliss excess in test [13] was -0.0413; in test [14], -0.017; in test [15], -0.0406; in [16], -0.0208; in test [17], 0.0027; in [18], 0.0291. For the same compound, the results for the Bliss excess in test [19] and in test [20] were -0.0125 and -0.024, respectively.
For the compound `NC1(C(=O)N[C@@H](CCO)c2ccc(Cl)cc2)CCN(c2ncnc3[nH]ccc23)CC1` [Capivasertib] + COc1nnc2ccc(N3CCC(c4ccc(OCCN5CCN(C)C(=O)[C@H]5C)cc4)CC3)nn12 [AZD5153] (first compound max 10 µM, 7x7, partner max 1 µM), the Bliss excess was -0.0867 in [1]; -0.0126 in test [2]; -0.0448 in test [3]; 0.0375 in test [4]; 0.0021 in test [5]; 0.0881 in test [6]. Also, the Bliss excess in test [7] is 0.0557; in test [8] it was 0.0026; in test [9], 0.0355; in test [10], 0.0131; in test [11] it was 0.0078; in test [12] it was 0.0566. The Bliss excess is -0.0313 in test [13]; -0.0003 in test [14]; -0.0718 in test [15]; -0.0995 in test [16]; -0.0129 in [17]; 0.0972 in test [18]. Moreover, the Bliss excess in test [19] is 0.032; in [20] it was -0.0938.
For `NC1(C(=O)N[C@@H](CCO)c2ccc(Cl)cc2)CCN(c2ncnc3[nH]ccc23)CC1` [Capivasertib] + C[C@@H]1COCCN1C2=NC(=NC(=C2)C3(CC3)[S@](=N)(=O)C)C4=C5C=CNC5=NC=C4 [AZD6738] (first compound max 10 µM, 7x7, partner max 10 µM), the Bliss excess in [1] was -0.0735; in test [2], -0.0742; in test [3], -0.0084; in test [4], -0.0076; in test [5], -0.0166; in test [6], -0.0617. For the same compound, the Bliss excess in [7] was -0.054; in [8] it was -0.0471; in [9], -0.0158; in test [10] it was -0.0418; in [11], -0.0637; in test [12], -0.0189. For the same compound, the Bliss excess is -0.0405 in test [13]; -0.0412 in test [14]; -0.0784 in test [15]; -0.0078 in [16]; -0.0746 in [17]; 0.0034 in test [18]. For the same compound, the values for the Bliss excess in test [19] and in test [20] were 0.0096 and -0.0645, respectively.
For `NC1(C(=O)N[C@@H](CCO)c2ccc(Cl)cc2)CCN(c2ncnc3[nH]ccc23)CC1` [Capivasertib] + Cn1cnc2c(F)c(Nc3ccc(Br)cc3Cl)c(C(=O)NOCCO)cc21 [Selumetinib] (first compound max 10 µM, 7x7, partner max 10 µM), the Bliss excess in test [1] was -0.0242; in test [2], 0.0212; in test [3], -0.0255; in [4] it was 0.0077; in test [5] it was 0.0534; in test [6], -0.0651. Besides, the Bliss excess in test [7] was 0.0042; in test [8], -0.0255; in [9], 0.028; in [10], 0.0146; in test [11], 0.0221; in test [12], 0.0313. Moreover, the Bliss excess in [13] is 0.0437; in test [14], 0.032; in test [15], -0.0324; in test [16] it was -0.0045; in [17], 0.0515; in [18] it was 0.0028. Further, the Bliss excess in test [19] was -0.0297; in test [20], 0.0433.
In the case of `Cc1nc(Nc2ncc(C(=O)Nc3c(C)cccc3Cl)s2)cc(N2CCN(CCO)CC2)n1` [Dasatinib] + CC(=O)Nc1cccc(-n2c(=O)n(C3CC3)c(=O)c3c(Nc4ccc(I)cc4F)n(C)c(=O)c(C)c32)c1 [Trametinib] (first compound max 2 µM, 7x7, partner max 1 µM), the Bliss excess is -0.0543 in test [1]; -0.0004 in test [2]; 0.0121 in test [3]; 0.0784 in [4]; 0.112 in test [5]; -0.073 in test [6]. The Bliss excess in [7] was 0.121; in [8], -0.0298; in test [9] it was 0.0389; in [10], -0.0527; in [11], 0.162; in [12], 0.0113. Also, the Bliss excess is -0.0025 in test [13]; -0.0292 in [14]; -0.0436 in test [15]; -0.0238 in [16]; 0.0108 in test [17]; 0.0199 in test [18]. Moreover, the values for the Bliss excess in [19] and in test [20] were -0.0972 and 0.008, respectively.

The values are drawn from the supplement of paper PMC11061612.
